Results: patent US20130295692A1, “MEANS AND METHODS FOR PREDICTING DIABETES” (METANOMICS HEALTH GMBH, priority 2010, published 2013)
Where a name gives a salt, the structure may show the parent alone.

Tested on: healthy rat plasma glyoxylate concentrations
Test: Rats treated with anti-diabetic drug metformin: 28-day oral gavage study, plasma metabolite profiling of glyoxylate
Type: in vivo
Details: for Ratio treatment/control of plasma glyoxylate: fasted plasma
Description: Two groups of each 5 male and female rats was dosed once daily with the indicated compounds with a different dose per group (see below) over 28 days.
Each dose group in the studies consisted of five rats per sex. Additional groups of each 15 male and 15 female animals served as controls. Before starting the treatment period, animals, which were 62-64 days old when supplied, were acclimatized to the housing and environmental conditions for 7 days. All animals of the animal population were kept under the same constant temperature (20-24±3° C.) and the same constant humidity (30-70%). The animals of the animal population were fed ad libitum. The food to be used was essentially free of chemical or microbial contaminants. Drinking water was also offered ad libitum. Accordingly, the water was free of chemical and microbial contaminants as laid down in the European Drinking Water Directive 98/83/EG. The illumination period was 12 hours light followed by 12 hours darkness (12 hours light, from 6:00 to 18:00, and 12 hours darkness, from 18:00 to 6:00). The studies were performed in an AAALAC-approved laboratory in accordance with the German Animal Welfare Act and the European Council Directive 86/609/EE. The test system was arranged according to the OECD 407 guideline for the testing of chemicals for repeated dose 28-day oral toxicity study in rodents. The test substance was dosed and administered as follows:
Metformin hydrochloride was administered by gavage (high dose group at 1 g/kg body weight, low dose group at 0.2 g/kg body weight), in drinking water containing 0.5% Carboxymethyl cellulose (Tylose CB30000) (administration volume: 10 ml/kg body weight).
In the morning of day 7, 14, and 28, blood was taken from the retroorbital venous plexus from fasted anaesthetized animals. From each animal, 1 ml of blood was collected with EDTA as anticoagulant. The samples were centrifuged for generation of plasma. All plasma samples were covered with a N2 atmosphere and then stored at −80° C. until analysis.
For mass spectrometry-based metabolite profiling analyses plasma samples were extracted and a polar and a non-polar (lipid) fraction was obtained. For GC-MS analysis, the non-polar fraction was treated with methanol under acidic conditions to yield the fatty acid methyl esters. Both fractions were further derivatised with O-methyl-hydroxyamine hydrochloride and pyridine to convert Oxo-groups to O-methyloximes and subsequently with a silylating agent before analysis. In LC-MS analysis, both fractions were reconstituted in appropriate solvent mixtures. HPLC was performed by gradient elution on reversed phase separation columns. Mass spectrometric detection which allows target and high sensitivity MRM (Multiple Reaction Monitoring) profiling in parallel to a full screen analysis was applied as described in WO2003073464.
Following comprehensive analytical validation steps, the data for each analyte were normalized against data from pool samples. These samples were run in parallel through the whole process to account for process variability. The significance of treatment group values specific for sex, treatment duration and metabolite was determined by comparing means of the treated groups to the means of the respective untreated control groups using WELCH-test and quantified with treatment ratios versus control and p-values.

SMILES: CN(C)C(=N)NC(=N)N [Metformin hydrochloride, N,N-dimethylimidodicarbonimidic diamide]
- Ratio treatment/control of plasma glyoxylate (High Dose 1 g/kg body weight by gavage once daily, female rats, day 7 (f7)): 0.82
- Ratio treatment/control of plasma glyoxylate (High Dose 1 g/kg body weight by gavage once daily, female rats, day 14 (f14)): 0.58
- Ratio treatment/control of plasma glyoxylate (High Dose 1 g/kg body weight by gavage once daily, female rats, day 28 (f28)): 0.52
- Ratio treatment/control of plasma glyoxylate (High Dose 1 g/kg body weight by gavage once daily, male rats, day 7 (m7)): 0.22
- Ratio treatment/control of plasma glyoxylate (High Dose 1 g/kg body weight by gavage once daily, male rats, day 14 (m14)): 0.29
- Ratio treatment/control of plasma glyoxylate (High Dose 1 g/kg body weight by gavage once daily, male rats, day 28 (m28)): 0.58
- Ratio treatment/control of plasma glyoxylate (Low Dose 0.2 g/kg body weight by gavage once daily, female rats, day 7 (f7)): 1.01
- Ratio treatment/control of plasma glyoxylate (Low Dose 0.2 g/kg body weight by gavage once daily, female rats, day 14 (f14)): 0.72
- Ratio treatment/control of plasma glyoxylate (Low Dose 0.2 g/kg body weight by gavage once daily, female rats, day 28 (f28)): 0.64
- Ratio treatment/control of plasma glyoxylate (Low Dose 0.2 g/kg body weight by gavage once daily, male rats, day 7 (m7)): 0.59
- Ratio treatment/control of plasma glyoxylate (Low Dose 0.2 g/kg body weight by gavage once daily, male rats, day 14 (m14)): 0.65
- Ratio treatment/control of plasma glyoxylate (Low Dose 0.2 g/kg body weight by gavage once daily, male rats, day 28 (m28)): 0.44
- Effect on glyoxylate concentrations in rat model system (summary in words) (rat model system, summary of Table 8): capable of reducing glyoxylate concentrations
